Among the test systems are COLO 205 colon; DMS 114 small cell lung; DMS 273 small cell lung; HCT-15 colon; M14 melanoma; OVCAR-5 ovarian; RXF 393 renal; SK-MEL-28 melanoma; TK-10 renal; XF 498 CNS; MALME-3M melanoma; NCI/ADR-RES ovarian.
Assay in all cases: DTP human tumour cell line panel, 48 h

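Compound exposure: 48 hours, 5 concentrations, 96-well plates. The concentration for 50% growth inhibition is given as GI50. The concentration for full growth arrest is given as TGI.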

Turning to `O=[N+]([O-])c1ccc(C2=Nc3ccccc3SC(c3ccccc3)C2)cc1` (stereo not given), the TGI (usually the concentration at which net growth stops) amounted to 31.8 µM in the test on COLO 205 colon; 32.8 µM in the test on DMS 114 small cell lung; 27.5 µM in the test on DMS 273 small cell lung; 30.9 µM in the test on HCT-15 colon; 36.3 µM in the test on M14 melanoma; 36.6 µM in the test on OVCAR-5 ovarian. Moreover, the TGI in the test on RXF 393 renal is 40 µM; in the test with SK-MEL-28 melanoma it was 41.6 µM; in the test on TK-10 renal it was > 100 µM; with XF 498 CNS, 31.6 µM.
As to `O=C([CH-]C(=O)c1ccccc1)c1ccccc1.O=C([CH-]C(=O)c1ccccc1)c1ccccc1.[O]=[U+2]=[O]`, the GI50 (as a rule, the concentration giving 50% growth inhibition) in the test with COLO 205 colon is 2.11 µM; with HCT-15 colon it was 2.78 µM; with M14 melanoma, 2.35 µM; in the test on RXF 393 renal, 2.35 µM; with SK-MEL-28 melanoma, 3.49 µM; in the test on TK-10 renal, 4.8 µM. Moreover, the TGI was 4.71 µM in the test on COLO 205 colon; 11.1 µM in the test with HCT-15 colon; 6.42 µM in the test with M14 melanoma; 6.22 µM in the test with RXF 393 renal; 19.9 µM with SK-MEL-28 melanoma; 26.6 µM in the test on TK-10 renal.
Regarding `O=C(c1ccco1)C1CC(c2c(O)ccc3ccccc23)=NN1` (stereo not given), the TGI in the test on COLO 205 colon was 21.7 µM; in the test on HCT-15 colon, > 100 µM; in the test on M14 melanoma, 26 µM; with MALME-3M melanoma, 37.9 µM; in the test on NCI/ADR-RES ovarian, 51.1 µM; with OVCAR-5 ovarian it was 36.3 µM. The TGI turned out to be 50 µM in the test with RXF 393 renal, 47.8 µM in the test on SK-MEL-28 melanoma and 32.5 µM with TK-10 renal.
`NC(=O)c1ncn2c1NC(=O)CC2`: the TGI in the test on COLO 205 colon, in the test with DMS 114 small cell lung, in the test with DMS 273 small cell lung, with HCT-15 colon, in the test with MALME-3M melanoma and in the test with NCI/ADR-RES ovarian was > 100 µM throughout. The TGI with OVCAR-5 ovarian, in the test on RXF 393 renal, in the test on SK-MEL-28 melanoma and in the test with XF 498 CNS was > 100 µM each time.
With `COC(=O)C1=C(O)C(C(=O)OC)[C@@]2(O)[C@@H](C(=O)OC)[C@H](C)[C@@H](C)[C@@H]1[C@@H]2C(=O)OC` (stereo not given in full), the TGI in the test with HCT-15 colon is > 100 µM; with M14 melanoma it was > 100 µM; in the test on MALME-3M melanoma it was > 100 µM; with OVCAR-5 ovarian it was > 100 µM; with RXF 393 renal it was 72.3 µM; in the test on SK-MEL-28 melanoma it was > 100 µM. The TGI in the test with TK-10 renal is > 100 µM.
For `CC1(C)OC2CC(=O)OCC23C1CC(=O)C1(C)C3CCC2(C)C(c3ccoc3)OC(=O)C3OC321` (stereo not given), the TGI in the test with COLO 205 colon, in the test on DMS 114 small cell lung, in the test with DMS 273 small cell lung, in the test on HCT-15 colon, with MALME-3M melanoma and in the test with NCI/ADR-RES ovarian was > 125 µM each time. Also, the TGI in the test with OVCAR-5 ovarian, in the test on RXF 393 renal, in the test on SK-MEL-28 melanoma and with XF 498 CNS was > 125 µM in each case.
With `CCN1C(=O)N(CC)C2Nn3c(s/c(=C4\C(=O)N(C)c5ccccc54)c3=O)=NC21` (stereo not given), the GI50 with COLO 205 colon is 2.26 µM; with HCT-15 colon, 1.27 µM; in the test on M14 melanoma it was 2.41 µM; in the test with MALME-3M melanoma, 3.9 µM; with NCI/ADR-RES ovarian, 1.95 µM; with SK-MEL-28 melanoma it was 6.45 µM. Moreover, the TGI in the test on COLO 205 colon, in the test on HCT-15 colon, in the test with M14 melanoma, in the test on MALME-3M melanoma, with NCI/ADR-RES ovarian and in the test on SK-MEL-28 melanoma was > 100 µM each time.
Consider `CCCCC#CS(=O)(=O)C(F)(F)F`, for which the TGI in the test on COLO 205 colon, in the test with DMS 114 small cell lung, with DMS 273 small cell lung, in the test on HCT-15 colon, in the test on MALME-3M melanoma and in the test on NCI/ADR-RES ovarian was > 100 µM each time. Besides, the TGI is > 100 µM in the test on OVCAR-5 ovarian, 78.1 µM with RXF 393 renal, > 100 µM with SK-MEL-28 melanoma and > 94.7 µM with XF 498 CNS.
As for `Cc1c2ccncc2c(C)c2c1[nH]c1ccccc12`, the TGI with COLO 205 colon is 1.83 µM; in the test on DMS 114 small cell lung, 3.09 µM; in the test on DMS 273 small cell lung, 2.22 µM; in the test on HCT-15 colon it was 2.73 µM; in the test on M14 melanoma, 2.33 µM; with MALME-3M melanoma it was 4.92 µM. The TGI is 2.93 µM in the test on NCI/ADR-RES ovarian; 4.23 µM in the test on OVCAR-5 ovarian; 0.595 µM with RXF 393 renal; 3 µM in the test with SK-MEL-28 melanoma; 2.6 µM with TK-10 renal; 3.29 µM in the test with XF 498 CNS. Besides, the GI50 is 0.979 µM with M14 melanoma and 0.79 µM with TK-10 renal.
With `O=C(OCc1ccccc1)C(Cc1ccccc1)N(Cc1ccccc1)Cc1ccccc1` (stereo not given), the TGI with COLO 205 colon, with DMS 114 small cell lung, in the test with DMS 273 small cell lung, with HCT-15 colon, with M14 melanoma and in the test on MALME-3M melanoma was > 100 µM throughout. The TGI with OVCAR-5 ovarian, in the test on RXF 393 renal, in the test on SK-MEL-28 melanoma, with TK-10 renal and in the test on XF 498 CNS was > 100 µM in each case.
